Data published in paper PMC4303209, “A novel phosphatidylinositol 3-kinase (PI3K) inhibitor directs a potent FOXO-dependent, p53-independent cell cycle arrest phenotype characterized by the differential induction of a subset of FOXO-regulated genes” (Breast Cancer Research : BCR, 2014).

Test system: MCF-7 breast cancer cells
Assay: Microarray gene expression analysis (Agilent whole human genome 4 x 44K; compound vs DMSO, LIMMA log2 fold change)
Assay type: cell-based

Oc1cccc(-c2nc(N3CCOCC3)c3oc4ncccc4c3n2)c1 [PI-103]
BCL11B log2FC (Apoptosis genes, Gene 64919): 0.237
MRPL41 log2FC (Apoptosis genes, Gene 64975): -0.467
PINK1 log2FC (Apoptosis genes, Gene 65018): 1.918
PRAMEF1 log2FC (Apoptosis genes, Gene 65121): 0.050
PRAMEF2 log2FC (Apoptosis genes, Gene 65122): 0.021
UBE2Z log2FC (Apoptosis genes, Gene 65264): -0.420
TMEM109 log2FC (Apoptosis genes, Gene 79073): -0.554
CHAC1 log2FC (Apoptosis genes, Gene 79094): 0.106
TNIP2 log2FC (Apoptosis genes, Gene 79155): -0.233
PLEKHF1 log2FC (Apoptosis genes, Gene 79156): -0.466
THOC6 log2FC (Apoptosis genes, Gene 79228): -0.153
BCL2L14 log2FC (Apoptosis genes, Gene 79370): -0.153
BIRC7 log2FC (Apoptosis genes, Gene 79444): -0.015
ELMO3 log2FC (Apoptosis genes, Gene 79767): -0.530
SLTM log2FC (Apoptosis genes, Gene 79811): 0.713
ZC3H12A log2FC (Apoptosis genes, Gene 80149): -1.248
RNF34 log2FC (Apoptosis genes, Gene 80196): -0.370
ELL3 log2FC (Apoptosis genes, Gene 80237): 1.045
CPEB4 log2FC (Apoptosis genes, Gene 80315): 0.553
COL18A1 log2FC (Apoptosis genes, Gene 80781): 0.023
SGPP1 log2FC (Apoptosis genes, Gene 81537): -0.248
SHARPIN log2FC (Apoptosis genes, Gene 81858): -0.118
APH1B log2FC (Apoptosis genes, Gene 83464): -0.243
RASSF5 log2FC (Apoptosis genes, Gene 83593): -0.099
SOX7 log2FC (Apoptosis genes, Gene 83595): -0.149
BCL2L12 log2FC (Apoptosis genes, Gene 83596): -0.182
ITCH log2FC (Apoptosis genes, Gene 83737): 0.449
CDCA7 log2FC (Apoptosis genes, Gene 83879): -0.061
TATDN1 log2FC (Apoptosis genes, Gene 83940): 0.554
TM2D1 log2FC (Apoptosis genes, Gene 83941): 0.055
OBSCN log2FC (Apoptosis genes, Gene 84033): 0.392
TRAF7 log2FC (Apoptosis genes, Gene 84231): -0.080
RHBDD1 log2FC (Apoptosis genes, Gene 84236): -0.425
TCHP log2FC (Apoptosis genes, Gene 84260): 0.283
ZDHHC16 log2FC (Apoptosis genes, Gene 84287): -0.316
ING5 log2FC (Apoptosis genes, Gene 84289): -0.961
AKT1S1 log2FC (Apoptosis genes, Gene 84335): -0.610
CARD11 log2FC (Apoptosis genes, Gene 84433): 0.185
SYVN1 log2FC (Apoptosis genes, Gene 84447): 0.495
ZC3H8 log2FC (Apoptosis genes, Gene 84524): 1.375
FNDC1 log2FC (Apoptosis genes, Gene 84624): -0.079
CARD6 log2FC (Apoptosis genes, Gene 84674): 0.035
HINT2 log2FC (Apoptosis genes, Gene 84681): 0.122
BEX2 log2FC (Apoptosis genes, Gene 84707): 0.833
TNS4 log2FC (Apoptosis genes, Gene 84951): -1.157
ATG4D log2FC (Apoptosis genes, Gene 84971): -0.288
SCRT2 log2FC (Apoptosis genes, Gene 85508): -0.600
WNT3A log2FC (Apoptosis genes, Gene 89780): -0.352
FGD3 log2FC (Apoptosis genes, Gene 89846): 0.895
UNC5A log2FC (Apoptosis genes, Gene 90249): -0.397
BMF log2FC (Apoptosis genes, Gene 90427): 2.201
MTDH log2FC (Apoptosis genes, Gene 92140): 0.308
TIMM50 log2FC (Apoptosis genes, Gene 92609): -0.337
TP53INP1 log2FC (Apoptosis genes, Gene 94241): 0.890
EGLN2 log2FC (Apoptosis genes, Gene 112398): 0.419
EGLN3 log2FC (Apoptosis genes, Gene 112399): -0.441
PNMA5 log2FC (Apoptosis genes, Gene 114824): 0.611
SLC5A11 log2FC (Apoptosis genes, Gene 115584): 0.170
TWIST2 log2FC (Apoptosis genes, Gene 117581): -0.613
RFFL log2FC (Apoptosis genes, Gene 117584): -0.445
FGD4 log2FC (Apoptosis genes, Gene 121512): 0.646
RXFP2 log2FC (Apoptosis genes, Gene 122042): -0.012
DCUN1D3 log2FC (Apoptosis genes, Gene 123879): -0.855
ACVR1C log2FC (Apoptosis genes, Gene 130399): 0.413
IL31RA log2FC (Apoptosis genes, Gene 133396): 0.067
JMY log2FC (Apoptosis genes, Gene 133746): 1.008
UNC5D log2FC (Apoptosis genes, Gene 137970): 0.036
DYNLL2 log2FC (Apoptosis genes, Gene 140735): -0.654
PSMA8 log2FC (Apoptosis genes, Gene 143471): 0.074
TICAM1 log2FC (Apoptosis genes, Gene 148022): -0.334
BNIPL log2FC (Apoptosis genes, Gene 149428): -0.016
ZSWIM2 log2FC (Apoptosis genes, Gene 151112): -0.00651
DAB2IP log2FC (Apoptosis genes, Gene 153090): 0.029
SLC5A8 log2FC (Apoptosis genes, Gene 160728): -0.019
PTCRA log2FC (Apoptosis genes, Gene 171558): -0.229
HIGD2A log2FC (Apoptosis genes, Gene 192286): -0.188
FLCN log2FC (Apoptosis genes, Gene 201163): 0.778
HIPK1 log2FC (Apoptosis genes, Gene 204851): -0.082
UNC5B log2FC (Apoptosis genes, Gene 219699): -0.706
RNF152 log2FC (Apoptosis genes, Gene 220441): -0.049
FGD2 log2FC (Apoptosis genes, Gene 221472): -0.083
MPV17L log2FC (Apoptosis genes, Gene 255027): -0.431
TMEM23 log2FC (Apoptosis genes, Gene 259230): 0.281
MAGI3 log2FC (Apoptosis genes, Gene 260425): 0.313
BLOC1S2 log2FC (Apoptosis genes, Gene 282991): 0.288
NRBP2 log2FC (Apoptosis genes, Gene 340371): -0.00243
NANOS3 log2FC (Apoptosis genes, Gene 342977): 0.015
AMIGO2 log2FC (Apoptosis genes, Gene 347902): 0.458
C6orf120 log2FC (Apoptosis genes, Gene 387263): -0.573
GDF6 log2FC (Apoptosis genes, Gene 392255): -0.024
MYO18A log2FC (Apoptosis genes, Gene 399687): -0.274
PRAMEF3 log2FC (Apoptosis genes, Gene 401940): -0.384
ADIPOQ log2FC (Apoptosis genes, Gene 414149): -0.263
PIM3 log2FC (Apoptosis genes, Gene 415116): 0.644
LGALS7 log2FC (Apoptosis genes, Gene 653499): -0.246
CARD9 log2FC (Apoptosis genes, Gene 728489): -0.430
PDCD6 log2FC (Apoptosis genes, Gene 728613): -0.273
RRN3 log2FC (Apoptosis genes, Gene 730092): 0.522
CD24 log2FC (Apoptosis genes, Gene 100133941): 0.117
ACVR1 log2FC (Gene 90, cell cycle genes): 0.55
ACVR1B log2FC (Gene 91, cell cycle genes): -0.21
ADCYAP1 log2FC (Gene 116, cell cycle genes): 0.0422
AHR log2FC (Gene 196, cell cycle genes): 0.78
AIF1 log2FC (Gene 199, cell cycle genes): -0.0247
AK1 log2FC (Gene 203, cell cycle genes): -0.25
AKT1 log2FC (Gene 207, cell cycle genes): -0.58
AKT2 log2FC (Gene 208, cell cycle genes): -0.41
ALOX15B log2FC (Gene 247, cell cycle genes): -0.00234
ANK3 log2FC (Gene 288, cell cycle genes): 0.62
ANXA1 log2FC (Gene 301, cell cycle genes): 0.80
ANXA11 log2FC (Gene 311, cell cycle genes): -0.16
APBB1 log2FC (Gene 322, cell cycle genes): 0.36
APBB2 log2FC (Gene 323, cell cycle genes): -0.18
APEX1 log2FC (Gene 328, cell cycle genes): 0.12
BIRC2 log2FC (Gene 329, cell cycle genes): -0.34
APP log2FC (Gene 351, cell cycle genes): 0.33
ARF6 log2FC (Gene 382, cell cycle genes): -0.57
RHOB log2FC (Gene 388, cell cycle genes): -0.10
RHOC log2FC (Gene 389, cell cycle genes): -0.37
ARL2 log2FC (Gene 402, cell cycle genes): 0.09
ARL3 log2FC (Gene 403, cell cycle genes): 0.06
ASNS log2FC (Gene 440, cell cycle genes): -0.39
BACH1 log2FC (Gene 571, cell cycle genes): 0.78
BARD1 log2FC (Gene 580, cell cycle genes): 0.34
BBS4 log2FC (Gene 585, cell cycle genes): 0.84
CCND1 log2FC (Gene 595, cell cycle genes): -1.53
BCL2 log2FC (Gene 596, cell cycle genes): -0.34
BCL2L1 log2FC (Gene 598, cell cycle genes): -0.92
BCR log2FC (Gene 613, cell cycle genes): -0.81
BID log2FC (Gene 637, cell cycle genes): -0.26
BMP2 log2FC (Gene 650, cell cycle genes): -0.23
BMP7 log2FC (Gene 655, cell cycle genes): -0.32
DST log2FC (Gene 667, cell cycle genes): 0.55
BRCA1 log2FC (Gene 672, cell cycle genes): 0.74
BRDT log2FC (Gene 676, cell cycle genes): -0.0232
BUB1 log2FC (Gene 699, cell cycle genes): 0.59
CALM1 log2FC (Gene 801, cell cycle genes): 0.07
CALR log2FC (Gene 811, cell cycle genes): -0.16
CAMK2A log2FC (Gene 815, cell cycle genes): 0.03
CAMK2D log2FC (Gene 817, cell cycle genes): 0.78
CAMK2G log2FC (Gene 818, cell cycle genes): 0.66
CASP2 log2FC (Gene 835, cell cycle genes): -0.76
CAV2 log2FC (Gene 858, cell cycle genes): 0.93
RUNX3 log2FC (Gene 864, cell cycle genes): -0.36
CCNA2 log2FC (Gene 890, cell cycle genes): -0.08
CCNB1 log2FC (Gene 891, cell cycle genes): -0.13
CCNC log2FC (Gene 892, cell cycle genes): -0.10
CCND2 log2FC (Gene 894, cell cycle genes): -1.30
CCND3 log2FC (Gene 896, cell cycle genes): -0.73
CCNE1 log2FC (Gene 898, cell cycle genes): -0.63
CCNG1 log2FC (Gene 900, cell cycle genes): 0.46
CCNG2 log2FC (Gene 901, cell cycle genes): 3.91
CD28 log2FC (Gene 940, cell cycle genes): 0.0361
CDC5L log2FC (Gene 988, cell cycle genes): 0.88
CDC6 log2FC (Gene 990, cell cycle genes): -0.98
CDC20 log2FC (Gene 991, cell cycle genes): -0.31
CDC25A log2FC (Gene 993, cell cycle genes): -2.03
